Like-named read-outs stand apart in the source and are kept apart here. Where a SMILES comes first, the peptide text is derived from it. [ ]: non-standard residue; d: D form. Phe(ol) = N[C@H](CO)Cc1ccccc1; Aib = CC(C)(N)C(=O)O
Assays:
[1] = tested on: T. gondii RH strain (RH-Tub-eYFP) tachyzoites; test: microbe, parasite or virus in culture; assay type: cell-based, Toxoplasma gondii
[2] = tested on: P. falciparum 3D7 parasites; test: P. falciparum growth inhibition assay, 2-cycle (120 h treatment), delayed-death screen and dose-response; assay type: cell-based, Plasmodium falciparum
[3] = tested on: P. falciparum 3D7 parasites; test: P. falciparum growth inhibition assay, 1-cycle (72 h treatment), SYBR DNA staining (library screen at 2 μg/mL and dose-response); assay type: cell-based, Plasmodium falciparum
[4] = T. gondii, 72 h, parasite screen at 2 μg/mL, % growth, replicate 1
[5] = T. gondii, 72 h, parasite screen at 2 μg/mL, % growth, replicate 2
[6] = P. falciparum 3D7, 120 h, parasite screen at 2 μg/mL, % growth, replicate 1
[7] = P. falciparum 3D7, 120 h, parasite screen at 2 μg/mL, % growth, replicate 2
[8] = P. falciparum 3D7, 72 h, parasite screen at 2 μg/mL, % growth, replicate 1
[9] = P. falciparum 3D7, 72 h, parasite screen at 2 μg/mL, % growth, replicate 2
[10] = library screen at 2 μg/mL, 72 h, % growth, replicate 1
[11] = library screen at 2 μg/mL, 72 h, % growth, replicate 2
[12] = library screen at 2 μg/mL, 120 h, % growth, replicate 1
[13] = library screen at 2 μg/mL, 120 h, % growth, replicate 2
[14] = T. gondii, 72 h, screen at 2 μg/mL, replicate 1
[15] = T. gondii, 72 h, screen at 2 μg/mL, replicate 2
[16] = P. falciparum, 120 h, screen at 2 μg/mL, replicate 1
[17] = P. falciparum, 120 h, screen at 2 μg/mL, replicate 2
[18] = P. falciparum, 72 h, screen at 2 μg/mL, replicate 1
[19] = P. falciparum, 72 h, screen at 2 μg/mL, replicate 2

With `Cc1cc(O)cc(O)c1C(=O)O` [BIA-O1657] the Tg_72h_%Growth_Rep1 [1, 4] was 114.94%, the Tg_72h_%Growth_Rep2 [1, 5] was 95.01% and the Pf_120h_%Growth_Rep1 [2, 6] was 95.39%. For the same compound, the Pf_120h_%Growth_Rep2 [2, 7] was 131.31%, the Pf_72h_%Growth_Rep1 [3, 8] was 83.41% and the Pf_72h_%Growth_Rep2 [3, 9] was 79.75%.
In the case of `CC(=O)NC(C)(C)C(=O)N1CCC[C@H]1C(=O)NC(C)(C)C(=O)N[C@@H](C)C(=O)NC(C)(C)C(=O)N[C@@H](C)C(=O)N[C@@H](CCC(N)=O)C(=O)NC(C)(C)C(=O)N[C@H](C(=O)NC(C)(C)C(=O)NCC(=O)N[C@@H](CC(C)C)C(=O)NC(C)(C)C(=O)N1CCC[C@H]1C(=O)N[C@H](C(=O)NC(C)(C)C(=O)NC(C)(C)C(=O)N[C@@H](CCC(N)=O)C(=O)N[C@@H](CCC(N)=O)C(=O)N[C@H](CO)Cc1ccccc1)C(C)C)C(C)C` [Alamethicin F50] (Ac-[Aib]P[Aib]A[Aib]AQ[Aib]V[Aib]GL[Aib]PV[Aib][Aib]QQ[Phe(ol)]), the percent parasite growth at 2 µg/mL ([1]; Toxoplasma gondii; library screen at 2 μg/mL, 72 h, % growth, replicate 1; read-out: Tg_72h_%Growth_Rep1) is reported as 92.3%, the percent parasite growth at 2 µg/mL ([1]; Toxoplasma gondii; library screen at 2 μg/mL, 72 h, % growth, replicate 2; read-out: Tg_72h_%Growth_Rep2) is reported as 87.6% and the “3) Fold change (72 h/120 h)” value ([2]; P. falciparum, growth at 72 h / growth at 120 h, 2 μg/mL) is reported as 6.4. The activity at 2 µg/mL ([2]; Plasmodium falciparum, 3D7; P. falciparum, 2 μg/mL, 120 h; read-out: 2) Growth (%) at 120 h) was 3.45%, the activity at 2 µg/mL ([2]; Plasmodium falciparum, 3D7, library screen at 2 μg/mL, 120 h, % growth, replicate 1, read-out: Pf_120h_%Growth_Rep1) was 8.66% and the activity at 2 µg/mL ([2]; Plasmodium falciparum, 3D7, library screen at 2 μg/mL, 120 h, % growth, replicate 2, read-out: Pf_120h_%Growth_Rep2) was -1.76%. It also gave an activity at 2 µg/mL ([3]; Plasmodium falciparum, 3D7; P. falciparum, 2 μg/mL, 72 h; read-out: 1) Growth (%) at 72 h) of 22%, an activity at 2 µg/mL ([3]; Plasmodium falciparum, 3D7, library screen at 2 μg/mL, 72 h, % growth, replicate 1, read-out: Pf_72h_%Growth_Rep1) of 21.9% and an activity at 2 µg/mL ([3]; Plasmodium falciparum, 3D7, library screen at 2 μg/mL, 72 h, % growth, replicate 2, read-out: Pf_72h_%Growth_Rep2) of 22.1%.
`CO[C@H]1\C=C/C=C\C=C/C[C@H](OC(=O)[C@@H](C)NC(=O)C2CCCCC2)[C@H](C)[C@@H](O)/C(C)=C\CCc2cc(O)cc(c2O)NC(=O)C1` [Ansatrienin B] gave a Tg_72h_%Growth_Rep1 [1, 10] of 19.16%, a Tg_72h_%Growth_Rep2 [1, 11] of 11.14% and a Pf_120h_%Growth_Rep1 [2, 12] of -0.38%. It also gave a Pf_120h_%Growth_Rep2 [2, 13] of 4.42%, a Pf_72h_%Growth_Rep1 [3, 10] of 4.68% and a Pf_72h_%Growth_Rep2 [3, 11] of 7.24%.
`COc1cccc2oc3c4c(cc(OC)c3c(=O)c12)O[C@H]1OC=C[C@@H]41` [BIA-M1214] gave a Tg_72h_%Growth_Rep1 [1, 4] of 111.85%, a Tg_72h_%Growth_Rep2 [1, 5] of 93.41% and a Pf_120h_%Growth_Rep1 [2, 6] of 94.17%. For the same compound, the Pf_120h_%Growth_Rep2 [2, 7] was 84.03%, the Pf_72h_%Growth_Rep1 [3, 8] was 80.14% and the Pf_72h_%Growth_Rep2 [3, 9] was 43.63%.
`CC(C)(O)[C@H]1O[C@H]2CC[C@@]3(C)[C@@](O)(CC[C@H]4Cc5c([nH]c6ccccc56)[C@@]43C)[C@]23O[C@@H]3[C@@H]1O` [Terpendole I] was tested, and the Tg_72h_%Growth_Rep1 [1, 14] was 89.20%, the Tg_72h_%Growth_Rep2 [1, 15] was 95.24% and the Pf_120h_%Growth_Rep1 [2, 16] was 141.22%. For the same compound, the Pf_120h_%Growth_Rep2 [2, 17] was 87.55%, the Pf_72h_%Growth_Rep1 [3, 18] was 66.72% and the Pf_72h_%Growth_Rep2 [3, 19] was 80.63%.
With `CC(=O)N[C@H]1[C@H](O[C@@H]2c3ccc(c(Cl)c3)Oc3cc4cc(c3O)Oc3ccc(cc3Cl)C[C@H]3NC(=O)[C@H](N)c5ccc(O)c(c5)Oc5cc(O)cc(c5)[C@H](NC3=O)C(=O)N[C@H]4C(=O)N[C@H]3C(=O)N[C@@H]2C(=O)N[C@H](C(=O)O)c2cc(O)cc(O[C@H]4O[C@H](CO)[C@@H](O)[C@H](O)[C@@H]4O)c2-c2cc3ccc2O)O[C@H](CO)[C@@H](O)[C@@H]1O` [Teicoplanin A3-1] the Tg_72h_%Growth_Rep1 [1, 14] was 92.73%, the Tg_72h_%Growth_Rep2 [1, 15] was 87.18% and the Pf_120h_%Growth_Rep1 [2, 16] was 162.68%. For the same compound, the Pf_120h_%Growth_Rep2 [2, 17] was 89.82%, the Pf_72h_%Growth_Rep1 [3, 18] was 83.89% and the Pf_72h_%Growth_Rep2 [3, 19] was 89.40%.
Compound `COC1=C(OC)C(=O)C(C)=CC1=O` [Fumigatin methylether] has a Tg_72h_%Growth_Rep1 [1, 10] of 59.41%, a Tg_72h_%Growth_Rep2 [1, 11] of 97.15% and a Pf_120h_%Growth_Rep1 [2, 12] of 25.98%. For the same compound, the Pf_120h_%Growth_Rep2 [2, 13] was 27.21%, the Pf_72h_%Growth_Rep1 [3, 10] was 10.44% and the Pf_72h_%Growth_Rep2 [3, 11] was 11.19%.
With `CC(/C=C/C(=O)NO)=C\[C@@H](C)C(=O)c1ccc(N(C)C)cc1` [trichostatin A, reference compound] the Tg_72h_%Growth_Rep1 [1, 14] was 0.84%, the Tg_72h_%Growth_Rep2 [1, 15] was 0.67% and the Pf_120h_%Growth_Rep1 [2, 16] was 8.88%. For the same compound, the Pf_120h_%Growth_Rep2 [2, 17] was 11.39%, the “activity in the screen against P. falciparum” value ([3]; 2 μg/mL, 72 h, active = ≥80 % growth inhibition) was “active” and the Pf_72h_%Growth_Rep1 [3, 18] was 1.39%. It also gave a Pf_72h_%Growth_Rep2 [3, 19] of -9.74%.
Work on `CO[C@@H]1[C@H](OC(=O)/C=C/C=C/C=C/C=C/C(=O)O)CC[C@]2(CO2)[C@H]1[C@@]1(C)O[C@@H]1CC=C(C)C` [Fumagillin] yielded a percent parasite growth at 2 µg/mL ([1]; Toxoplasma gondii, 72 h, library screen at 2 μg/mL, 72 h, % growth, replicate 1; read-out: Tg_72h_%Growth_Rep1) of 31%, a percent parasite growth at 2 µg/mL ([1]; Toxoplasma gondii, 72 h, library screen at 2 μg/mL, 72 h, % growth, replicate 2; read-out: Tg_72h_%Growth_Rep2) of 30.7% and an activity at 2 µg/mL ([2]; Plasmodium falciparum, 3D7, 120 h, library screen at 2 μg/mL, 120 h, % growth, replicate 1, read-out: Pf_120h_%Growth_Rep1) of 7.49%. The activity at 2 µg/mL ([2]; Plasmodium falciparum, 3D7, 120 h, library screen at 2 μg/mL, 120 h, % growth, replicate 2, read-out: Pf_120h_%Growth_Rep2) was 7.63%, the activity at 2 µg/mL ([3]; Plasmodium falciparum, 3D7, 72 h, library screen at 2 μg/mL, 72 h, % growth, replicate 1, read-out: Pf_72h_%Growth_Rep1) was 10.6% and the activity at 2 µg/mL ([3]; Plasmodium falciparum, 3D7, 72 h, library screen at 2 μg/mL, 72 h, % growth, replicate 2, read-out: Pf_72h_%Growth_Rep2) was 6.01%.

— PMC12396409, “Screening and hit evaluation of a microbial metabolite library against the pathogenic Plasmodium falciparum and Toxoplasma gondii parasites” (International Journal for Parasitology: Drugs and Drug …, 2025)
